# From PubChem BioAssay AID2060606 (Molecular Pharmacology Branch, DTP, NCI, 2025)
# System: 922993-354-T-J3-PDC complex spheroids, viability, % test/control
# Experiment: Anticancer human tumor 922993-354-T-J3-PDC patient-derived endometrial carcinoma cell line growth inhibition [CLK]
# Conditions: for IC50: curve of first compound; for viability, T/C: stronger effect = lower value
# How it was run: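 Patient-derived tumor cells grown as complex spheroids with HUVEC endothelial cells and mesenchymal stem cells, treated with drug combinations. Concentrations descend in half-log steps from near clinical Cmax, or from 10 microM if Cmax unknown.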
# 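Further: spheroids exposed to the agents for 7 days before readout.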
smiles,measurement,setting,value
Nc1ccccc1NC(=O)c1ccc(CNC(=O)OCc2cccnc2)cc1 + CNC(=O)c1ccc(Nc2nc(OC3CCCC3)c3c(-c4ccc5nc(C)oc5c4)c[nH]c3n2)c(OC)c1,IC50,second compound 0.0316 µM,> 10000 nM
same,IC50,second compound 0.1 µM,6250 nM
same,IC50,second compound 0.316 µM,2290 nM
same,IC50,second compound 1 µM,< 31.6 nM
same,IC50,second compound 3.16 µM,< 31.6 nM
same,IC50,second compound 10 µM,< 31.6 nM
same,"viability, T/C","second compound 0.0316 µM, first compound 0.0316 µM",106%
same,"viability, T/C","second compound 0.0316 µM, first compound 0.1 µM",99.7%
same,"viability, T/C","second compound 0.0316 µM, first compound 0.316 µM",93.3%
same,"viability, T/C","second compound 0.0316 µM, first compound 1 µM",86.6%
same,"viability, T/C","second compound 0.0316 µM, first compound 3.16 µM",65.1%
same,"viability, T/C","second compound 0.0316 µM, first compound 10 µM",52.1%
same,"viability, T/C","second compound 0.1 µM, first compound 0.0316 µM",106%
same,"viability, T/C","second compound 0.1 µM, first compound 0.1 µM",93.8%
same,"viability, T/C","second compound 0.1 µM, first compound 0.316 µM",97.7%
same,"viability, T/C","second compound 0.1 µM, first compound 1 µM",77.4%
same,"viability, T/C","second compound 0.1 µM, first compound 3.16 µM",58.4%
same,"viability, T/C","second compound 0.1 µM, first compound 10 µM",44.4%
same,"viability, T/C","second compound 0.316 µM, first compound 0.0316 µM",59.1%
same,"viability, T/C","second compound 0.316 µM, first compound 0.1 µM",50%
same,"viability, T/C","second compound 0.316 µM, first compound 0.316 µM",57.9%
same,"viability, T/C","second compound 0.316 µM, first compound 1 µM",51.9%
same,"viability, T/C","second compound 0.316 µM, first compound 3.16 µM",49.3%
same,"viability, T/C","second compound 0.316 µM, first compound 10 µM",34.4%
same,"viability, T/C","second compound 1 µM, first compound 0.0316 µM",37.6%
same,"viability, T/C","second compound 1 µM, first compound 0.1 µM",37%
same,"viability, T/C","second compound 1 µM, first compound 0.316 µM",31.9%
same,"viability, T/C","second compound 1 µM, first compound 1 µM",34.4%
same,"viability, T/C","second compound 1 µM, first compound 3.16 µM",31.9%
same,"viability, T/C","second compound 1 µM, first compound 10 µM",8.75%
same,"viability, T/C","second compound 3.16 µM, first compound 0.0316 µM",29%
same,"viability, T/C","second compound 3.16 µM, first compound 0.1 µM",30.7%
same,"viability, T/C","second compound 3.16 µM, first compound 0.316 µM",27.9%
same,"viability, T/C","second compound 3.16 µM, first compound 1 µM",31.5%
same,"viability, T/C","second compound 3.16 µM, first compound 3.16 µM",24.8%
same,"viability, T/C","second compound 3.16 µM, first compound 10 µM",6.59%
same,"viability, T/C","second compound 10 µM, first compound 0.0316 µM",28.8%
same,"viability, T/C","second compound 10 µM, first compound 0.1 µM",24.2%
same,"viability, T/C","second compound 10 µM, first compound 0.316 µM",24.8%
same,"viability, T/C","second compound 10 µM, first compound 1 µM",30.1%
same,"viability, T/C","second compound 10 µM, first compound 3.16 µM",17.2%
same,"viability, T/C","second compound 10 µM, first compound 10 µM",5.11%
